Earlier results as cited in patent US20070197495A1, “ANTI-PARASITIC COMPOUNDS AND METHODS OF THEIR USE” (THE REGENTS OF THE UNIVERSITY OF CALIFORNIA, priority 2004, published 2007).

Experiments:
T. cruzi [1] = settings: mouse model study (Engel et al. 1998)
T. cruzi [2] = settings: cruzain inhibitor added to cultures of mammalian cells exposed to trypomastigotes or already infected with amastigotes

| Compound | outcome of treatment of T. cruzi-infected mice (T. cruzi [1]) | replication and differentiation of the parasite (T. cruzi [2]) |
| --- | --- | --- |
| CN1CCN(C(=O)NC(Cc2ccccc2)C(=O)NC(C=CS(=O)(=O)c2ccccc2)CCc2ccccc2)CC1 (centres unmarked) [N-methyl piperazine-Phe-homoPhe-vinyl sulfone phenyl] | cure | – |
| benzyloxy-carbonyl-L-phenylalanyl L-alanine fluoromethyl ketone [Z-Phe-Ala-FMK] | – | blocks replication and differentiation of the parasite |
